Test results from PMC4977651, “Molecular features of biguanides required for targeting of mitochondrial respiratory complex I and activation of AMP-kinase” (BMC Biology, 2016).
“And” between values parts separate entries of the source, which are not always exact repeats. Equal entries are not always repeated. Where two headings read alike, the source gives them in different places.

How the values were obtained:
[1] = target: bovine heart mitochondrial membranes (complex I) (Bos taurus, UniProt P03887+P03898+P17694+P42026); assay: NADH:O2 oxidoreduction by bovine heart mitochondrial membranes (complexes I-III-IV); type: biochemical
How it was run: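 At 32 °C, rates were taken by linear regression of NADH absorbance loss after NADH start. Isolated enzyme (0.5 μg mL^−1): 200 μM decylubiquinone, 200 μM NADH, pH 7.2 Tris with 0.15 % asolectin and CHAPS. Membranes (5 μg mL^−1): 200 μM NADH, 0.15 mM cytochrome c, pH 7.4 Tris-sucrose. IC50s carry 95 % confidence intervals.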

143B cells = assay: Rotenone-sensitive oxygen consumption rate in intact 143B cells; type: cell-based, human; conditions: for rotenone sensitive OCR after 6 hours of biguanide exposure, % control, average / rotenone sensitive OCR after 6 hours of biguanide exposure, average: 143B cells, biguanide at IC50/10; for rotenone sensitive OCR after 6 hours of biguanide exposure, average: OCR normalized to OCR immediately prior to biguanide addition
Method: 143B (CRL-8303 from ATCC), HepG2 (85011430 from The Health Protection Agency), and MDBK (CCL-22 from ATCC) cells were grown on Dulbecco’s modified Eagle’s medium (DMEM) supplemented with 10 % fetal bovine serum (FBS, Thermo Fisher Scientific) at 37 °C in 5 % CO2. All cells were confirmed as negative for mycoplasma.
Oxygen consumption rates (OCRs) were measured using a Seahorse XF96 extracellular flux analyzer at 37 °C. For intact cell measurements, 1.4 × 10^4 143B, HepG2, or MDBK cells were plated (per well) in DMEM containing 10 % FBS into Seahorse Bioscience Inc. XF96 plates and incubated for ~12 h at 37 °C in 5 % CO2. Then, the medium was exchanged for assay buffer containing DMEM, 4.5 g L^−1 glucose, 1 mM pyruvate, 32 mM NaCl, 2 mM GlutaMAX, 15 mg L^−1 phenol red, and 20 mM HEPES (pH 7.4 at 37 °C) and the cells placed in a CO2-free incubator at 37 °C for 30 min. Basal oxygen consumption rates were established before the addition of biguanides at one-tenth of their IC50 (IC50/10), and followed for ~ 6 h before the addition of rotenone (2 μM).
(§1) Rotenone-sensitive OCRs were calculated by subtracting the rotenone-insensitive rates (determined at the end of the experiment). OCRs were normalized by dividing by the OCR recorded immediately prior to the addition of biguanide. For rate of uptake calculations, the OCRs at time points after biguanide addition were divided by the OCRs at the same time points in control experiments. Data from wells with failed port injections were excluded from the analyses. The respiratory control ratio (RCR) values (state III versus state IV respiration) were ~11 and ~6 for permeabilized MDBK and 143B cells, respectively.

permeabilized MDBK cells = assay: ADP-stimulated rotenone-sensitive OCR in permeabilized MDBK cells; type: cell-based, Bos taurus; design: rotenone sensitive OCR after ADP stimulation, average / rotenone sensitive OCR after ADP stimulation: unit not given here; conditions: MDBK permeabilised cells; for rotenone sensitive OCR after ADP stimulation, % of control, average / rotenone sensitive OCR after ADP stimulation, average: average of replicates; for rotenone sensitive OCR after ADP stimulation / rotenone sensitive OCR after ADP stimulation, % of control: individual replicates
Method: For permeabilized cell experiments, cells were seeded into XF96 plates at 0.9–1.1 × 10^4 per well and incubated for 48 h at 37 °C in 5 % CO2. Then, the growth medium was exchanged for assay buffer containing 3 nM plasma membrane permeabilizer ‘PMP’ (Seahorse Biosciences Inc.), 10 mM glutamate, 10 mM malate, 220 mM mannitol, 70 mM sucrose, 10 mM KH2PO4, 5 mM MgCl2, 1 mM EGTA, 0.2 % fatty acid-free bovine serum albumin (BSA), and 2 mM HEPES (pH 7.4 at 37 °C). […] The biguanides were allowed to accumulate for 30 min, then respiration was […] by the addition of 4 mM ADP. Rotenone was added (2 μM) at the end of the experiment.
as §1

mouse liver mitochondria = assay: ADP-stimulated rotenone-sensitive OCR in isolated mouse liver mitochondria; type: biochemical; design: rotenone sensitive OCR after ADP stimulation, individual replicates / rotenone sensitive OCR after ADP stimulation, average: unit not given here; conditions: for rotenone sensitive OCR after ADP stimulation, % of control, average / rotenone sensitive OCR after ADP stimulation, average: average of replicates; for rotenone sensitive OCR after ADP stimulation, % of control, individual replicates / rotenone sensitive OCR after ADP stimulation, individual replicates: replicate 1-5
Method: Complex I and mitochondrial membranes were prepared from Bos taurus (bovine) heart. Intact mitochondria were isolated from rat liver and mouse heart and liver. Membranes were prepared from mouse heart mitochondria by 5 s bursts of sonication at 4 °C and collected by centrifugation (75,000 × g, 1 h).
Isolated mitochondria were monitored using a Seahorse XF96 extracellular flux analyzer at 32 °C. Mouse heart mitochondria, and mouse and rat liver mitochondria were plated into XF96 plates at 4 and 16–20 μg per well, respectively, in 220 mM mannitol, 70 mM sucrose, 10 mM KH2PO4, 5 mM MgCl2, 1 mM EGTA, 0.2 % fatty acid-free BSA, and 2 mM HEPES (pH 7.4 at 37 °C) with 10 mM glutamate and 10 mM malate and adhered by centrifugation (2000 × g, 20 min, 4 °C). The medium was supplemented with a further 5 mM glutamate and 5 mM malate and the mitochondria incubated for 15 min. Then two baseline readings were taken before the biguanides were added at IC50/5. Biguanides were allowed to accumulate for 15–20 min before respiration was […] by the addition of 4 mM ADP. Rotenone (2 μM) was added at the end of the experiment. Data from wells with failed port injections were excluded from the analyses. The RCR values (state III versus state IV respiration) were 3.4, 4.8, and 4.6 for mouse heart, rat liver, and mouse liver, respectively.

[2] = bovine heart mitochondrial membranes; inhibitor 0.025 mM; read-out: average % (rate, % of no-inhibitor control)
[3] = bovine heart mitochondrial membranes; inhibitor 0.05 mM; read-out: average % (rate, % of no-inhibitor control)
[4] = bovine heart mitochondrial membranes; inhibitor 0.25 mM; read-out: average % (rate, % of no-inhibitor control)
[5] = bovine heart mitochondrial membranes; inhibitor 0.50 mM; read-out: average % (rate, % of no-inhibitor control)
[6] = log of concentration in mM; sample given as Bovine heart mitochondrial membranes; Prism variable slope fit, Bottom 0, Top 100
[7] = sample given as Bovine heart mitochondrial membranes; Prism variable slope fit, Bottom 0, Top 100

Sequence of bovine heart mitochondrial membranes (complex I) (P42026 38-216): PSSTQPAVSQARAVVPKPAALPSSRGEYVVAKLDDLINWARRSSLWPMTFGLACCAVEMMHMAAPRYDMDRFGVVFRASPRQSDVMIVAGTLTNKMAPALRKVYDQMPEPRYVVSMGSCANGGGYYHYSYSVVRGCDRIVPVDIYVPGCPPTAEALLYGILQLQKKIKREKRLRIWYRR
Sequence of bovine heart mitochondrial membranes (complex I) (P17694 34-463): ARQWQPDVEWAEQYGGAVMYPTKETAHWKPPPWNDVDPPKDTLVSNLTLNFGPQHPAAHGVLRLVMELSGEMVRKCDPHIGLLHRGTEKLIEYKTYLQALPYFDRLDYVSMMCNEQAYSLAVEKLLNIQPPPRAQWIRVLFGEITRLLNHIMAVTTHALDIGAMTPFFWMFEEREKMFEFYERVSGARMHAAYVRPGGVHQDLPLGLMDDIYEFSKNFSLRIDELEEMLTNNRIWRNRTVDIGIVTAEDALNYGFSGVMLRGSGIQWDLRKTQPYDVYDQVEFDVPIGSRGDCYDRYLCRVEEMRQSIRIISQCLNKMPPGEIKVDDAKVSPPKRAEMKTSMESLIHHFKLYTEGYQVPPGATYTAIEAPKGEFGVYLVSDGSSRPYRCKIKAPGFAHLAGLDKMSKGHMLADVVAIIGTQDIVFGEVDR
Sequence of bovine heart mitochondrial membranes (complex I) (P03887 whole entry): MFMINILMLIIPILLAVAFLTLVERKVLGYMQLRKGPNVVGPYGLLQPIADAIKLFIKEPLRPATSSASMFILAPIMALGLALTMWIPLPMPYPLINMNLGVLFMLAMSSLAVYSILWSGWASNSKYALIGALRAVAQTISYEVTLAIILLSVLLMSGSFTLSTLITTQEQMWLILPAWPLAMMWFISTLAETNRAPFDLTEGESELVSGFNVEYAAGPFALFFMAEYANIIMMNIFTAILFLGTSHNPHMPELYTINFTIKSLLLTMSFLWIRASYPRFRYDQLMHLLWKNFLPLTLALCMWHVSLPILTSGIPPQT
Sequence of bovine heart mitochondrial membranes (complex I) (P03898 whole entry): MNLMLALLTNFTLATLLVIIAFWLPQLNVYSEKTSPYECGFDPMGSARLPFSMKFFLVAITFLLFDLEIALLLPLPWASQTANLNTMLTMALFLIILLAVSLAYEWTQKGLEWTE

Q: `CC(C)N=C(N)N=C(N)NC(C)C` [compound 5, N-(propan-2-yl)-1-3-(propan-2-yl)carbamimidamidomethanimidamide] was tested. Which remaining activity at 25 µM [1, 2] did it give?
A: The remaining activity at 25 µM was 88.2%.

Q: And the remaining activity at 50 µM [1, 3]?
A: The remaining activity at 50 µM was 80.7%.

Q: What about the remaining activity at 120 µM ([1]; bovine heart mitochondrial membranes; inhibitor 0.12 mM; read-out: average % (rate, % of no-inhibitor control)) of the same molecule?
A: The remaining activity at 120 µM was 67.1%.

Q: And the remaining activity at 250 µM [1, 4]?
A: The remaining activity at 250 µM was 53.5%.

Q: What about the remaining activity at 500 µM [1, 5] of the same molecule?
A: Its remaining activity at 500 µM is 42.4%.

Q: What about the remaining activity at 1000 µM ([1]; bovine heart mitochondrial membranes; inhibitor 1.00 mM; read-out: average % (rate, % of no-inhibitor control)) of the same molecule?
A: Its remaining activity at 1000 µM is 30.7%.

Q: And the remaining activity at 2000 µM ([1]; bovine heart mitochondrial membranes; inhibitor 2.00 mM; read-out: average % (rate, % of no-inhibitor control))?
A: The remaining activity at 2000 µM was 19.2%.

Q: And the “LogIC50 (best fit value)” value [1, 6]?
A: The value was -0.4916.

Q: And the IC50 ([1]; sample given as Bovine heart mitochondrial membranes; Prism log(inhibitor) vs. response variable slope fit (four parameters), Bottom 0, Top 100; read-out: IC50 (best fit value))?
A: The IC50 was 322 µM.

Q: What about the “HillSlope (best fit value)” value [1, 7] of the same molecule?
A: The value was -0.7631.

Q: What about the “rotenone sensitive OCR after 6 hours of biguanide exposure, % control, average” value (143B cells) of the same molecule?
A: The value was 102.76 % control.

Q: What about the “rotenone sensitive OCR after 6 hours of biguanide exposure, average” value (143B cells) of the same molecule?
A: Its value is 120.45.

Q: What about the “inhibition of rotenone-sensitive respiration (in words)” value (143B cells; intact 143B cells, biguanide at IC50/10, monitored for 6 h) of the same molecule?
A: The value was “do not”.

Q: And the “rotenone sensitive OCR after ADP stimulation, % of control, average” value (shortened to “rotenone sensitive OCR … % of control, average”) (permeabilized MDBK cells)?
A: Its value is 94.54 % of control.

Q: And the “rotenone sensitive OCR after ADP stimulation, average” value (permeabilized MDBK cells)?
A: The value was 266.44.

Q: What about the “rotenone sensitive OCR … % of control, average” value (permeabilized MDBK cells; biguanide at IC50/5) of the same molecule?
A: The value was 94.54 % of control.

Q: And the “rotenone sensitive OCR after ADP stimulation, average” value (permeabilized MDBK cells; biguanide at IC50/5)?
A: The value was 266.44.

Q: What about the “rotenone sensitive OCR after ADP stimulation” value (permeabilized MDBK cells; biguanide at IC50/5) of the same molecule?
A: Its value is 341.66 and 308.83 and 224.55 and 216.86 and 280.18 and 213.17 and 210.97 and 335.32.

Q: What about the “rotenone sensitive OCR after ADP stimulation, % of control” value (permeabilized MDBK cells; biguanide at IC50/5) of the same molecule?
A: The value was 121.23 % of control and 109.59 % of control and 79.68 % of control and 76.95 % of control and 99.42 % of control and 75.64 % of control and 74.86 % of control and 118.98 % of control.

Q: And the “rotenone sensitive OCR … % of control, average” value (mouse liver mitochondria)?
A: Its value is 82.72 % of control.

Q: What about the “rotenone sensitive OCR after ADP stimulation, average” value (mouse liver mitochondria) of the same molecule?
A: The value was 28.70.

Q: And the “rotenone sensitive OCR after ADP stimulation, % of control, individual replicates” value (mouse liver mitochondria)?
A: Its value is 96.11 % of control and 71.97 % of control and 77.63 % of control and 85.15 % of control.

Q: And the “rotenone sensitive OCR after ADP stimulation, individual replicates” value (mouse liver mitochondria)?
A: Its value is 33.35 and 24.97 and 26.94 and 29.54.

Q: What does the source list for `[H]/N=C(\N/C(=N/[H])Nc1ccc(Cl)cc1)NC(C)C` [proguanil, reference compound]?
A: remaining activity at 5 µM ([1]; bovine heart mitochondrial membranes; inhibitor 0.005 mM; read-out: average % (rate, % of no-inhibitor control)): 76.5%; remaining activity at 12.5 µM ([1]; bovine heart mitochondrial membranes; inhibitor 0.0125 mM; read-out: average % (rate, % of no-inhibitor control)): 56.2%; remaining activity at 25 µM [1, 2]: 41.4%; remaining activity at 50 µM [1, 3]: 24.9%; remaining activity at 100 µM ([1]; bovine heart mitochondrial membranes; inhibitor 0.10 mM; read-out: average % (rate, % of no-inhibitor control)): 7.77%; remaining activity at 250 µM [1, 4]: 6.98%; remaining activity at 500 µM [1, 5]: 7.97%; LogIC50 (best fit value) [1, 6]: -1.788; IC50 ([1]; read-out: IC50 (best fit value); sample given as Bovine heart mitochondrial membranes; Prism log(inhibitor) vs. response variable slope fit (four parameters), Bottom 0, Top 100): 16.3 µM; HillSlope (best fit value) [1, 7]: -1.025; rotenone sensitive OCR after 6 hours of biguanide exposure, % control, average (143B cells): 94.32 % control; rotenone sensitive OCR after 6 hours of biguanide exposure, average (143B cells): 110.56; rotenone sensitive OCR after ADP stimulation, % of control, average (permeabilized MDBK cells): 105.17 % of control; rotenone sensitive OCR after ADP stimulation, average (permeabilized MDBK cells): 296.39; rotenone sensitive OCR after ADP stimulation, % of control, average (permeabilized MDBK cells; biguanide at IC50/5): 105.17 % of control; rotenone sensitive OCR after ADP stimulation, average (permeabilized MDBK cells; biguanide at IC50/5): 296.39; rotenone sensitive OCR after ADP stimulation (permeabilized MDBK cells; biguanide at IC50/5): 272.71 and 215.77 and 253.06 and 330.67 and 409.72; rotenone sensitive OCR after ADP stimulation, % of control (permeabilized MDBK cells; biguanide at IC50/5): 96.77 % of control and 76.56 % of control and 89.79 % of control and 117.34 % of control and 145.38 % of control; rotenone sensitive OCR after ADP stimulation, % of control, average (mouse liver mitochondria): 89.71 % of control; rotenone sensitive OCR after ADP stimulation, average (mouse liver mitochondria): 31.13; rotenone sensitive OCR after ADP stimulation, % of control, individual replicates (mouse liver mitochondria): 103.28 % of control and 81.19 % of control and 80.15 % of control and 94.21 % of control; rotenone sensitive OCR after ADP stimulation, individual replicates (mouse liver mitochondria): 35.84 and 28.17 and 27.81 and 32.69
